# In publication PMC6749364, “Pharmacokinetics and Tissue Distribution of Alnustone in Rats after Intravenous Administration by Liquid Chromatography-Mass Spectrometry” (Molecules, 2019):
# Assays:
# [1] = test system: LO-2 (human normal liver cells); design: method as in earlier work; conditions: LO-2 cell line; cited from earlier work
# [2] = Stability of alnustone in rat plasma and tissue homogenates (QC samples); format: in vitro ADME, rats; conditions: in % (unit assumed)
# Description: The calibration standards were prepared by spiking a certain volume of blank plasma or blank tissue homogenates with appropriate amounts of working solutions to yield a final concentration range from 1 to 2000 ng/mL. The effective concentrations of alnustone were 1, 5, 10, 40, 160, 200, 800, 2000 ng/mL for the plasma samples and tissue homogenates samples (heart, liver, spleen, lung, kidney, brain, stomach, intestine). […]
# The stability tests involved the following four conditions. The short-term stability study was examined by analyzing samples at room temperature for 4 h. The long-term stability study was performed by analyzing samples stored at −75 °C for 1 month. For the freeze-thaw stability study, the samples were analyzed after three freeze/thaw cycles (−75 °C to 25 °C). The post-preparative storage stability was assessed by analyzing the samples left in autosampler vials at 4 °C for 24 h. The stability analysis was performed using three aliquots of each QC samples at three different concentrations. The samples were considered stable if the assay values were within the acceptable limits of accuracy (±15% RE) and precision (≤15% RSD).
# [3] = test system: Bel-7402 (human hepatocellular carcinoma cells); design: method as in earlier work; conditions: Bel-7402 cell line; cited from earlier work
# [4] = Brain homogenate, QC 1600 ng/mL
# [5] = Heart homogenate, QC 1600 ng/mL
# [6] = Intestine homogenate, QC 1 ng/mL
# [7] = Intestine homogenate, QC 5 ng/mL
# [8] = Intestine homogenate, QC 100 ng/mL
# [9] = Intestine homogenate, QC 1600 ng/mL
# [10] = Kidney homogenate, QC 100 ng/mL
# [11] = Kidney homogenate, QC 1600 ng/mL
# [12] = Liver homogenate, QC 1600 ng/mL
# [13] = Spleen homogenate, QC 100 ng/mL
# [14] = Spleen homogenate, QC 1600 ng/mL
smiles,measurement,setting,value
"O=C(/C=C/C=C/c1ccccc1)CCc1ccccc1 [alnustone, Alnustone]",antitumor activity in vitro,[1],significant antitumor activity
same,Stability: Autosampler 4 °C for 24 h,"[2]; Brain homogenate, QC 1 ng/mL",109.2 ± 6.7
same,Stability: Short-Term (at Room Temperature for 4 h),"[2]; Brain homogenate, QC 1 ng/mL",110.6 ± 5.8
same,Stability: Storage at −75°C for 30 d,"[2]; Brain homogenate, QC 1 ng/mL",103.8 ± 4.1
same,Stability: Three Freeze-Thraw Cycles,"[2]; Brain homogenate, QC 1 ng/mL",86.5 ± 6.1
same,Stability: Autosampler 4 °C for 24 h,"[2]; Brain homogenate, QC 5 ng/mL",104.9 ± 7.0
same,Stability: Short-Term (at Room Temperature for 4 h),"[2]; Brain homogenate, QC 5 ng/mL",109.0± 4.4
same,Stability: Storage at −75°C for 30 d,"[2]; Brain homogenate, QC 5 ng/mL",108.9 ± 3.8
same,Stability: Three Freeze-Thraw Cycles,"[2]; Brain homogenate, QC 5 ng/mL",89.2 ± 4.6
same,Stability: Autosampler 4 °C for 24 h,"[2]; Brain homogenate, QC 100 ng/mL",95.4 ± 5.7
same,Stability: Short-Term (at Room Temperature for 4 h),"[2]; Brain homogenate, QC 100 ng/mL",99.3 ± 7.5
same,Stability: Storage at −75°C for 30 d,"[2]; Brain homogenate, QC 100 ng/mL",90.2 ± 7.4
same,Stability: Three Freeze-Thraw Cycles,"[2]; Brain homogenate, QC 100 ng/mL",98.0 ± 8.1
same,Stability: Autosampler 4 °C for 24 h,[2]; [4],104.2 ± 4.9
same,Stability: Short-Term (at Room Temperature for 4 h),[2]; [4],96.3 ± 7.4
same,Stability: Storage at −75°C for 30 d,[2]; [4],112.3 ± 8.9
same,Stability: Three Freeze-Thraw Cycles,[2]; [4],110.2 ± 6.8
same,Stability: Autosampler 4 °C for 24 h,"[2]; Heart homogenate, QC 100 ng/mL",89.0 ± 3.4
same,Stability: Storage at −75°C for 30 d,"[2]; Heart homogenate, QC 100 ng/mL",112.4 ± 4.0
same,Stability: Three Freeze-Thraw Cycles,"[2]; Heart homogenate, QC 100 ng/mL",104.8 ± 6.6
same,Stability: Autosampler 4 °C for 24 h,[2]; [5],90.3 ± 5.2
same,Stability: Short-Term (at Room Temperature for 4 h),[2]; [5],91.8 ± 5.8
same,Stability: Storage at −75°C for 30 d,[2]; [5],95.6 ± 5.4
same,Stability: Three Freeze-Thraw Cycles,[2]; [5],95.3 ± 9.0
same,Stability: Autosampler 4 °C for 24 h,[2]; [6],90.0 ± 5.7
same,Stability: Short-Term (at Room Temperature for 4 h),[2]; [6],89.6 ± 8.1
same,Stability: Storage at −75°C for 30 d,[2]; [6],96.5 ± 5.7
same,Stability: Three Freeze-Thraw Cycles,[2]; [6],113.7 ± 8.7
same,Stability: Autosampler 4 °C for 24 h,[2]; [7],90.9 ± 5.0
same,Stability: Short-Term (at Room Temperature for 4 h),[2]; [7],95.8 ± 7.7
same,Stability: Storage at −75°C for 30 d,[2]; [7],92.6 ± 3.7
same,Stability: Three Freeze-Thraw Cycles,[2]; [7],108.7 ± 9.4
same,Stability: Autosampler 4 °C for 24 h,[2]; [8],98.0 ± 4.9
same,Stability: Short-Term (at Room Temperature for 4 h),[2]; [8],95.3 ± 6.7
same,Stability: Storage at −75°C for 30 d,[2]; [8],114.4 ± 4.9
same,Stability: Three Freeze-Thraw Cycles,[2]; [8],96.9 ± 3.8
same,Stability: Autosampler 4 °C for 24 h,[2]; [9],103.0 ± 8.4
same,Stability: Short-Term (at Room Temperature for 4 h),[2]; [9],105.9 ± 7.1
same,Stability: Storage at −75°C for 30 d,[2]; [9],107.0 ± 4.3
same,Stability: Three Freeze-Thraw Cycles,[2]; [9],113.6 ± 2.8
same,Stability: Autosampler 4 °C for 24 h,"[2]; Kidney homogenate, QC 1 ng/mL",116.5 ± 8.0
same,Stability: Short-Term (at Room Temperature for 4 h),"[2]; Kidney homogenate, QC 1 ng/mL",107.8 ± 7.5
same,Stability: Storage at −75°C for 30 d,"[2]; Kidney homogenate, QC 1 ng/mL",89.8 ± 8.1
same,Stability: Three Freeze-Thraw Cycles,"[2]; Kidney homogenate, QC 1 ng/mL",93.7 ± 7.0
same,Stability: Autosampler 4 °C for 24 h,"[2]; Kidney homogenate, QC 5 ng/mL",114.1 ± 7.4
same,Stability: Short-Term (at Room Temperature for 4 h),"[2]; Kidney homogenate, QC 5 ng/mL",110.7 ± 6.6
same,Stability: Storage at −75°C for 30 d,"[2]; Kidney homogenate, QC 5 ng/mL",88.5 ± 6.4
same,Stability: Three Freeze-Thraw Cycles,"[2]; Kidney homogenate, QC 5 ng/mL",95.7 ± 5.7
same,Stability: Autosampler 4 °C for 24 h,[2]; [10],108.0 ± 5.7
same,Stability: Short-Term (at Room Temperature for 4 h),[2]; [10],109.7 ± 8.3
same,Stability: Storage at −75°C for 30 d,[2]; [10],111.0 ± 7.5
same,Stability: Three Freeze-Thraw Cycles,[2]; [10],90.9 ± 7.0
same,Stability: Autosampler 4 °C for 24 h,[2]; [11],95.9 ± 6.0
same,Stability: Short-Term (at Room Temperature for 4 h),[2]; [11],100.7 ± 7.0
same,Stability: Storage at −75°C for 30 d,[2]; [11],100.5 ± 10.6
same,Stability: Three Freeze-Thraw Cycles,[2]; [11],112.5 ± 5.2
same,Stability: Autosampler 4 °C for 24 h,"[2]; Liver homogenate, QC 1 ng/mL",93.1 ± 5.7
same,Stability: Short-Term (at Room Temperature for 4 h),"[2]; Liver homogenate, QC 1 ng/mL",98.8 ± 6.8
same,Stability: Storage at −75°C for 30 d,"[2]; Liver homogenate, QC 1 ng/mL",111.5 ± 6.9
same,Stability: Three Freeze-Thraw Cycles,"[2]; Liver homogenate, QC 1 ng/mL",101.5 ± 10.1
same,Stability: Autosampler 4 °C for 24 h,"[2]; Liver homogenate, QC 5 ng/mL",95.3 ± 3.2
same,Stability: Short-Term (at Room Temperature for 4 h),"[2]; Liver homogenate, QC 5 ng/mL",95.4 ± 5.8
same,Stability: Storage at −75°C for 30 d,"[2]; Liver homogenate, QC 5 ng/mL",106.5 ± 10.1
same,Stability: Three Freeze-Thraw Cycles,"[2]; Liver homogenate, QC 5 ng/mL",98.8 ± 9.9
same,Stability: Autosampler 4 °C for 24 h,"[2]; Liver homogenate, QC 100 ng/mL",101.3 ± 5.6
same,Stability: Short-Term (at Room Temperature for 4 h),"[2]; Liver homogenate, QC 100 ng/mL",111.0 ± 4.9
same,Stability: Storage at −75°C for 30 d,"[2]; Liver homogenate, QC 100 ng/mL",105.4 ± 7.2
same,Stability: Three Freeze-Thraw Cycles,"[2]; Liver homogenate, QC 100 ng/mL",108.4 ± 7.8
same,Stability: Autosampler 4 °C for 24 h,[2]; [12],94.8 ± 7.7
same,Stability: Short-Term (at Room Temperature for 4 h),[2]; [12],106.4 ± 6.0
same,Stability: Storage at −75°C for 30 d,[2]; [12],97.7 ± 6.8
same,Stability: Three Freeze-Thraw Cycles,[2]; [12],98.3 ± 6.3
same,Stability: Autosampler 4 °C for 24 h,"[2]; Lung homogenate, QC 1 ng/mL",105.8 ± 7.0
same,Stability: Short-Term (at Room Temperature for 4 h),"[2]; Lung homogenate, QC 1 ng/mL",89.5 ± 7.6
same,Stability: Storage at −75°C for 30 d,"[2]; Lung homogenate, QC 1 ng/mL",103.4 ± 8.7
same,Stability: Three Freeze-Thraw Cycles,"[2]; Lung homogenate, QC 1 ng/mL",108.2 ± 9.5
same,Stability: Autosampler 4 °C for 24 h,"[2]; Lung homogenate, QC 5 ng/mL",103.4 ± 7.1
same,Stability: Short-Term (at Room Temperature for 4 h),"[2]; Lung homogenate, QC 5 ng/mL",92.4 ± 6.4
same,Stability: Storage at −75°C for 30 d,"[2]; Lung homogenate, QC 5 ng/mL",93.0 ± 9.6
same,Stability: Three Freeze-Thraw Cycles,"[2]; Lung homogenate, QC 5 ng/mL",105.8 ± 8.7
same,Stability: Autosampler 4 °C for 24 h,"[2]; Lung homogenate, QC 100 ng/mL",98.4 ± 5.4
same,Stability: Short-Term (at Room Temperature for 4 h),"[2]; Lung homogenate, QC 100 ng/mL",106.4 ± 8.6
same,Stability: Storage at −75°C for 30 d,"[2]; Lung homogenate, QC 100 ng/mL",101.0 ± 7.5
same,Stability: Three Freeze-Thraw Cycles,"[2]; Lung homogenate, QC 100 ng/mL",94.4 ± 2.6
same,Stability: Autosampler 4 °C for 24 h,"[2]; Lung homogenate, QC 1600 ng/mL",100.6 ± 9.7
same,Stability: Short-Term (at Room Temperature for 4 h),"[2]; Lung homogenate, QC 1600 ng/mL",91.2 ± 6.8
same,Stability: Storage at −75°C for 30 d,"[2]; Lung homogenate, QC 1600 ng/mL",92.3 ± 6.3
same,Stability: Three Freeze-Thraw Cycles,"[2]; Lung homogenate, QC 1600 ng/mL",93.8 ± 4.6
same,Stability: Autosampler 4 °C for 24 h,"[2]; Spleen homogenate, QC 1 ng/mL",108.0 ± 6.0
same,Stability: Short-Term (at Room Temperature for 4 h),"[2]; Spleen homogenate, QC 1 ng/mL",108.5± 6.4
same,Stability: Storage at −75°C for 30 d,"[2]; Spleen homogenate, QC 1 ng/mL",102.3 ± 4.9
same,Stability: Three Freeze-Thraw Cycles,"[2]; Spleen homogenate, QC 1 ng/mL",101.2 ± 7.4
same,Stability: Autosampler 4 °C for 24 h,"[2]; Spleen homogenate, QC 5 ng/mL",101.8 ± 4.3
same,Stability: Short-Term (at Room Temperature for 4 h),"[2]; Spleen homogenate, QC 5 ng/mL",114.7 ± 5.8
same,Stability: Storage at −75°C for 30 d,"[2]; Spleen homogenate, QC 5 ng/mL",98.1 ± 3.9
same,Stability: Three Freeze-Thraw Cycles,"[2]; Spleen homogenate, QC 5 ng/mL",106.2 ± 6.9
same,Stability: Autosampler 4 °C for 24 h,[2]; [13],92.9 ± 6.5
same,Stability: Short-Term (at Room Temperature for 4 h),[2]; [13],107.5 ± 8.9
same,Stability: Storage at −75°C for 30 d,[2]; [13],114.3 ± 6.6
same,Stability: Three Freeze-Thraw Cycles,[2]; [13],105.3 ± 3.1
same,Stability: Autosampler 4 °C for 24 h,[2]; [14],102.1 ± 9.3
same,Stability: Short-Term (at Room Temperature for 4 h),[2]; [14],104.4 ± 6.1
same,Stability: Storage at −75°C for 30 d,[2]; [14],104.0 ± 3.2
same,Stability: Three Freeze-Thraw Cycles,[2]; [14],92.9 ± 7.6
same,antitumor activity in vitro,[3],significant antitumor activity
